The values that follow come from PMC3535830 (Bioorganic & medicinal chemistry letters, 2012).

Data set [1] concerns the target T1, human M4 receptor (Homo sapiens, UniProt P08173).
T1 sequence (P08173 1-479): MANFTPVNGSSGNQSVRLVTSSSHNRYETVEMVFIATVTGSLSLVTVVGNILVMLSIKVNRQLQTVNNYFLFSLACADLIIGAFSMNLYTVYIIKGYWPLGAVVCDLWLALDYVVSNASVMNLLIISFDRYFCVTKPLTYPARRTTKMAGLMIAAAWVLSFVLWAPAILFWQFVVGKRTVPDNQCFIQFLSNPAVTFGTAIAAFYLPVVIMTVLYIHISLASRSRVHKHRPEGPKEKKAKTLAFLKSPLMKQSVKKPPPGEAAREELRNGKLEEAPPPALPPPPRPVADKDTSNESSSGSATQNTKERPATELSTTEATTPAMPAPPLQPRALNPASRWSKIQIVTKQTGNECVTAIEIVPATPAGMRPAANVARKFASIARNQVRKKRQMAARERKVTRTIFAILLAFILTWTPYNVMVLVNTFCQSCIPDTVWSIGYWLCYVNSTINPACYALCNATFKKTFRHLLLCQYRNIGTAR
The experiment in a line: human M4 positive allosteric modulator potency assay. It counts as cell-based. To be noted: human M4 PAM; mean of at least 3 experiments.

For another data set, the target named is T2, rM2 (Rattus norvegicus, UniProt P10980).
T2 sequence (P10980 1-466): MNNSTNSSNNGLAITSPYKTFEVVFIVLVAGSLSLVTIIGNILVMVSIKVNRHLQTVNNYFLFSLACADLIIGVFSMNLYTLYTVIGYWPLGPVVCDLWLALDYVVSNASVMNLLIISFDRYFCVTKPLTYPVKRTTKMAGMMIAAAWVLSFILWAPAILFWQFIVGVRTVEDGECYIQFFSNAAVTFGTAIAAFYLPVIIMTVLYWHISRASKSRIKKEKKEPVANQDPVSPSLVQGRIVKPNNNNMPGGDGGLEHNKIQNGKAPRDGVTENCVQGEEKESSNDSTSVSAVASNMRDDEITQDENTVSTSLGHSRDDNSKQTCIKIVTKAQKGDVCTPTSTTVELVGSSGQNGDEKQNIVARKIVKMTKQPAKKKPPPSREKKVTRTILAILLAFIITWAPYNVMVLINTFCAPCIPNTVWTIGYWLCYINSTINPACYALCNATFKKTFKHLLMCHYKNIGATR
The experiment in a line: muscarinic selectivity rM2. It counts as cell-based.

A short description of data set [2]: in vitro PK: predicted hepatic clearance, rat. It counts as in vitro ADME. Conditions: for predicted clearance in the rat (CLHEP), in words: in vitro PK prediction; for rCLHEP: in vitro predicted hepatic clearance.
Data set [3] in a line: rat equilibrium dialysis plasma protein binding. It counts as in vitro ADME. To be noted: fraction unbound. A general note: In equilibrium dialysis free small molecules cross a membrane that holds back macromolecules.
For another data set, the target named is T3, hM2 (Homo sapiens, UniProt P08172).
T3 sequence (P08172 1-466): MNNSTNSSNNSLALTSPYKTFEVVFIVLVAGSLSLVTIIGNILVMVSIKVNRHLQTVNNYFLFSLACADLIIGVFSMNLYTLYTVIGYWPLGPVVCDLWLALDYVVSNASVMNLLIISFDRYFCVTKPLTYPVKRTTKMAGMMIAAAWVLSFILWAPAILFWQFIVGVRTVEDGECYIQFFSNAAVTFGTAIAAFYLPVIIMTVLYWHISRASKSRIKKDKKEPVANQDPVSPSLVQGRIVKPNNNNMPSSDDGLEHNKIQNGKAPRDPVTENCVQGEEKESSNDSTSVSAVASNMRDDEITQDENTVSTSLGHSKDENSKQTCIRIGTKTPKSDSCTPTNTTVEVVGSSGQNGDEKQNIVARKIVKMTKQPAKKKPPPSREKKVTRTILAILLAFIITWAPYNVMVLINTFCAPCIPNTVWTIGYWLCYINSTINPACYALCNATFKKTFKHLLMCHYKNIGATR
The data set can be described thus: muscarinic selectivity hM2. It counts as cell-based.

Data set [4] is described as follows: in vitro PK: predicted hepatic clearance, human. It counts as in vitro ADME.
Data set [5] concerns other four mAChR subtypes (M1, M2, M3, M5). The data set can be described thus: selectivity against the other four mAChR subtypes. It counts as cell-based. To be noted: read-out: activity against all four other mAChR subtypes.
The target of data set [6] is T1, human M4 receptor. To be noted: cited from earlier work.
In a further data set the target is T4, rat M4 receptor (Rattus norvegicus, UniProt P08485).
T4 sequence (P08485 1-478): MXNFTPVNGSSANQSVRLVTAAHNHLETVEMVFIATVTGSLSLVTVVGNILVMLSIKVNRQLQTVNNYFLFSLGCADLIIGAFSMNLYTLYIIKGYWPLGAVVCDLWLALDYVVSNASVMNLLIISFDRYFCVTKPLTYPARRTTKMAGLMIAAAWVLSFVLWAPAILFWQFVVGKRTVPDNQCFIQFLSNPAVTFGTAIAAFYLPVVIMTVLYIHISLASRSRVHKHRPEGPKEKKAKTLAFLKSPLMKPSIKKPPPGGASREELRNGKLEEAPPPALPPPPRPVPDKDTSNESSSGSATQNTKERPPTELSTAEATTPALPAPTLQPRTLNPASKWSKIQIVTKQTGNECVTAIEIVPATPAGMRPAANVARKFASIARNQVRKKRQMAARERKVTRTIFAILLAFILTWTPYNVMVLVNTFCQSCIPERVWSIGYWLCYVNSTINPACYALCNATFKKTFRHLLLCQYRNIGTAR
To be noted: read-out: rat M4 potency; cited from earlier work.

Like-named read-outs stand apart in the source and are kept apart here.

With `Cc1nc2sc(C(=O)NCc3cccc(F)c3F)c(N)c2c(C)c1Cl` [Compound 2], on human M4 receptor [1], the “pEC50 ± SEM” value was found to be 6.91 ± 0.05. In the case of `Cc1nc2sc(C(=O)NC3CC3)c(N)c2c(C)c1Cl` [Compound 3], the EC50 on rM2 is approximately 600 nM. For the same molecule, in [2], the “predicted clearance in the rat (CLHEP), in words” value is “high clearance” and the rCLHEP was 51.0 mL/min/kg. On human M4 receptor [1], the “pEC50 ± SEM” value came out at 7.11 ± 0.32. In addition, in [3], the “rPPB (%fu)” value is recorded as ~ 2%. Also, the EC50 on hM2 is approximately 600 nM. In addition, the hCLHEP in data set [4] was 13.9 mL/min/kg. Consider `Cc1nc2sc(C(=O)NCc3ccncc3)c(N)c2c(C)c1Cl` [Compound 4, 3-amino-5-chloro-4,6-dimethyl-N-(pyridinyl-4-methyl)thieno[2,3-b]pyridine-2-carboxamide], for which, in data set [2], the “predicted clearance in the rat (CLHEP), in words” value is given as “high clearance” and the rCLHEP is reported as 55.2 mL/min/kg. Further, in data set [5], the EC50 was more than 30000 nM. On to `Cc1cc(CNC(=O)c2sc3nc(C)c(Cl)c(C)c3c2N)ccn1` [Compound 6], for which the “pEC50 ± SEM” value on human M4 receptor [1] was 7.21 ± 0.05. In the case of `Cc1nc2sc(C(=O)NC(C)c3cccnc3)c(N)c2c(C)c1Cl` (centres unmarked) [Compound 8], the “pEC50 ± SEM” value at human M4 receptor [1] stood at 6.17 ± 0.08. The same measure, in the same setting: under `Cc1nc2sc(C(=O)NC(C)c3ccccn3)c(N)c2c(C)c1Cl` (centres unmarked) [Compound 10] stands 5.86 ± 0.07; under `Cc1nc2sc(C(=O)NCCc3ccncc3)c(N)c2c(C)c1Cl` [Compound 11], 6.89 ± 0.09; under `Cc1nc2sc(C(=O)NCCc3ccccn3)c(N)c2c(C)c1Cl` [Compound 13], 6.07 ± 0.06. The same measure, in the same setting: the value for `Cc1nc2sc(C(=O)NCc3ccncn3)c(N)c2c(C)c1Cl` [Compound 15] was 6.57 ± 0.06; that for `Cc1nc2sc(C(=O)NCc3ccnnc3)c(N)c2c(C)c1Cl` [Compound 17] was 6.49 ± 0.08. The same measure, in the same setting: the value for `Cc1nc2sc(C(=O)NCc3ccc4c(c3)OCO4)c(N)c2c(C)c1Cl` [Compound 18] was 7.09 ± 0.08. Regarding `Cc1nc2sc(C(=O)NCc3ccccc3)c(N)c2c(C)c1Cl` [Compound 19], the “pEC50 ± SEM” value at human M4 receptor [1] came to 6.97 ± 0.05. Same read-out and setting: under `Cc1nc2sc(C(=O)NCc3ccc(F)c(F)c3)c(N)c2c(C)c1Cl` [Compound 20] stands 6.81 ± 0.28. As for `Cc1nc2sc(C(=O)NCc3ccccc3Cl)c(N)c2c(C)c1Cl` [Compound 21], on human M4 receptor [1], the “pEC50 ± SEM” value is 6.81 ± 0.07. Still for that read-out and setting: the value for `Cc1ccc(CNC(=O)c2sc3nc(C)c(Cl)c(C)c3c2N)cc1` [Compound 22] was 6.98 ± 0.10; that for `Cc1nc2sc(C(=O)NCc3ccc(Cl)cc3)c(N)c2c(C)c1Cl` [Compound 23] was 6.75 ± 0.14; that for `Cc1nc2sc(C(=O)NCc3nccs3)c(N)c2c(C)c1Cl` [Compound 24] was 6.60 ± 0.07. Still for that read-out and setting: under `Cc1nc2sc(C(=O)NCc3ccc(C(F)(F)F)cc3)c(N)c2c(C)c1Cl` [Compound 25] stands 5.76 ± 0.27; under `Cc1nc2sc(C(=O)NC3CCOC3)c(N)c2c(C)c1Cl` (centres unmarked) [Compound 29], 7.28 ± 0.07; under `Cc1nc2sc(C(=O)NC3COC3)c(N)c2c(C)c1Cl` [Compound 30], 5.70 ± 0.24.

`Cc1nc2sc(C(=O)NC(C)C)c(N)c2c(C)c1Cl` [Compound 31]: at human M4 receptor [1], the “pEC50 ± SEM” value amounted to 6.83 ± 0.06.

In the case of `Cc1nc2sc(C(=O)NC3CCCCC3)c(N)c2c(C)c1Cl` [Compound 32], the “pEC50 ± SEM” value at human M4 receptor [1] is given as 6.65 ± 0.03. Still for that read-out and setting: the value for `Cc1nc2sc(C(=O)NC(C)(C)C)c(N)c2c(C)c1Cl` [Compound 34] was 6.51 ± 0.05; that for `Cc1nc2sc(C(=O)NCCC3CCCN3C)c(N)c2c(C)c1Cl` (centres unmarked) [Compound 36] was 6.03 ± 0.07.

With `COc1nc2sc(C(=O)NC3CC3)c(N)c2c(C)c1Cl` [LY2033298], the EC50 was 65 nM at human M4 receptor [6] (read-out: human M4 potency, human receptor) and 629 nM at rat M4 receptor. On to `COc1ccc(C)c2sc(NC(=O)c3ccncc3)nc12` [ML293], for which, on human M4 receptor [6] (read-out: hM4 potency, previously reported probe, ref 9d), the EC50 was 1300 nM.
